Tests used:
Format in all cases: in vivo
[1] = test system: Alopecurus myosuroides (ALOMY); assay: C. Herbicidal pre-emergence efficacy, ALOMY; settings: scored after about 3 weeks
In short: (§1)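 Pre-emergence test: formulated compounds sprayed as aqueous suspension or emulsion with 0.5% additive at 600 l/ha onto soil covering sown seeds, at rates corresponding to 320 g/ha or less. After about 3 weeks in greenhouse, efficacy scored visually as percent versus untreated controls (100% = plants dead).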

Lolium rigidum (LOLRI) [2] = assay: C. Herbicidal pre-emergence efficacy, LOLRI; settings: scored after about 3 weeks
In short: as §1

Kochia scoparia (KCHSC) = assay: C. Herbicidal pre-emergence efficacy, KCHSC
In short: as §1

[3] = test system: Amaranthus retroflexus (AMARE); assay: E. Herbicidal post-emergence efficacy, AMARE
In short: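 Compounds applied at 320 g/ha or less as a foliar spray (600 l/ha, 0.5% additive) to one-leaf-stage greenhouse plants grown in sandy loam. Damage is visually scored in percent relative to untreated plants after about 3 weeks.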

[4] = test system: Triticum aestivum (TRZAS); assay: F. Post-emergence effect on useful plants, TRZAS; settings: useful plant
In short: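 Visual efficacy rating versus untreated plants, from 0% (no effect) to 100% (plants died), made about 3 weeks after post-emergence treatment. Formulated compounds (WP or EC, 0.5% additive, 600 l/ha water) were sprayed onto greenhouse-grown crops at the one-leaf stage, 2-3 weeks after sowing.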

[5] = test system: Polygonum convolvulus (POLCO); assay: C. Herbicidal pre-emergence efficacy, POLCO; settings: scored after about 3 weeks
In short: as §1

[6] = test system: Echinochloa crus-galli (ECHCG); assay: C. Herbicidal pre-emergence efficacy, ECHCG; settings: scored after about 3 weeks
In short: as §1

Lolium rigidum (LOLRI) [7] = assay: A. Herbicidal pre-emergence efficacy, LOLRI
In short: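 Applied before emergence onto covering soil at rates of 1280 g/ha or less, using 600 L/ha spray water with 0.5% additive. Scoring: visual % efficacy after ~3 weeks, greenhouse.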

Veronica persica (VERPE) = assay: C. Herbicidal pre-emergence efficacy, VERPE; settings: scored after about 3 weeks
In short: as §1

[8] = test system: Triticum aestivum (TRZAS); assay: D. Pre-emergence effect on useful plants, TRZAS; settings: useful plant
In short: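 Seeds sown in pots and covered with soil; WP or EC formulations sprayed on the soil surface as aqueous suspension/emulsion with 0.5% additive at 600 l/ha water. Plants grown in greenhouse; crop damage scored visually after about 3 weeks as % versus untreated controls (100% = dead, 0% = like control).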

| Post-emergence efficacy against TRZAS in % ([4]; application rate 80 g/ha) | Pre-emergence efficacy against TRZAS in % ([8]; application rate 80 g/ha) | Pre-emergence efficacy against TRZAS in % ([8]; application rate 320 g/ha) | Post-emergence efficacy against TRZAS in % ([4]; application rate 320 g/ha) | Compound | Pre-emergence efficacy against ALOMY ([1]; 80 g/ha) | Pre-emergence efficacy against ALOMY ([1]; 320 g/ha) | Pre-emergence efficacy against LOLRI (Lolium rigidum (LOLRI) [2]; 80 g/ha) | Pre-emergence efficacy against LOLRI (Lolium rigidum (LOLRI) [2]; 320 g/ha) | Pre-emergence efficacy against KCHSC in % (Kochia scoparia (KCHSC); application rate 80 g/ha) | Pre-emergence efficacy against KCHSC in % (Kochia scoparia (KCHSC); application rate 320 g/ha) | Post-emergence efficacy against AMARE in % ([3]; application rate 80 g/ha) | Post-emergence efficacy against AMARE in % ([3]; application rate 320 g/ha) | Pre-emergence efficacy against POLCO ([5]; 80 g/ha) | Pre-emergence efficacy against POLCO ([5]; 320 g/ha) | Pre-emergence efficacy against ECHCG ([6]; 80 g/ha) | Pre-emergence efficacy against ECHCG ([6]; 320 g/ha) | Pre-emergence efficacy against LOLRI (Lolium rigidum (LOLRI) [7]; dosage 320 g/ha) | Pre-emergence efficacy against LOLRI (Lolium rigidum (LOLRI) [7]; dosage 1280 g/ha) | Pre-emergence efficacy against VERPE (Veronica persica (VERPE); 80 g/ha) | Pre-emergence efficacy against VERPE (Veronica persica (VERPE); 320 g/ha) |
| --- | --- | --- | --- | --- | --- | --- | --- | --- | --- | --- | --- | --- | --- | --- | --- | --- | --- | --- | --- | --- |
| 0% | – | – | – | O=S(=O)(CCC(F)(F)F)Oc1c(F)cccc1Oc1ncc(F)cn1 [Example I-47] | 100% | 100% | 90% | 100% | 100% | 100% | 100% | 100% | 100% | 100% | 100% | 100% | 100% | 100% | – | – |
| 10% | – | – | – | O=S(=O)(CCC(F)(F)F)Oc1c(F)cccc1Oc1ncc(Cl)cn1 [Example I-48] | 100% | 100% | 90% | 100% | 100% | 100% | 100% | 100% | 100% | 100% | 100% | 100% | 90% | 90% | – | – |
| – | – | – | – | O=S(=O)(CC1CC(F)(F)C1)Oc1c(F)cccc1Oc1ncc(Cl)cn1 [Example I-53] | 90% | 100% | – | 100% | 100% | 100% | 100% | 100% | 100% | 100% | 100% | 100% | 90% | 100% | 100% | 100% |
| 20% | 0% | – | – | O=S(=O)(CCC1CC1)Oc1c(F)cccc1Oc1ncc(Cl)cn1 [Example I-55] | – | – | – | 90% | 80% | 100% | 90% | 100% | 90% | 90% | 90% | 100% | – | 100% | – | 100% |
| 10% | – | – | – | O=S(=O)(CCCC(F)F)Oc1c(F)cccc1Oc1ncc(Cl)cn1 [Example I-56] | 100% | 100% | 100% | 100% | 100% | 100% | 100% | 100% | 100% | 100% | 100% | 100% | 100% | 100% | – | – |
| 0% | 0% | 20% | 20% | O=S(=O)(CCC(F)=C(F)F)Oc1c(Cl)cccc1Oc1ncc(Cl)cn1 [Example I-73] | – | – | – | 80% | – | 100% | 80% | 100% | – | 90% | – | 90% | – | 90% | – | 80% |

| Compound | Post-emergence efficacy against TRZAS in % ([4]; application rate 80 g/ha) | Pre-emergence efficacy against TRZAS in % ([8]; application rate 80 g/ha) | Pre-emergence efficacy against TRZAS in % ([8]; application rate 320 g/ha) | Post-emergence efficacy against TRZAS in % ([4]; application rate 320 g/ha) | Pre-emergence efficacy against ALOMY ([1]; 80 g/ha) | Pre-emergence efficacy against ALOMY ([1]; 320 g/ha) | Pre-emergence efficacy against LOLRI (Lolium rigidum (LOLRI) [2]; 80 g/ha) | Pre-emergence efficacy against LOLRI (Lolium rigidum (LOLRI) [2]; 320 g/ha) | Pre-emergence efficacy against KCHSC in % (Kochia scoparia (KCHSC); application rate 80 g/ha) | Pre-emergence efficacy against KCHSC in % (Kochia scoparia (KCHSC); application rate 320 g/ha) | Post-emergence efficacy against AMARE in % ([3]; application rate 80 g/ha) | Post-emergence efficacy against AMARE in % ([3]; application rate 320 g/ha) | Pre-emergence efficacy against POLCO ([5]; 80 g/ha) | Pre-emergence efficacy against POLCO ([5]; 320 g/ha) | Pre-emergence efficacy against ECHCG ([6]; 80 g/ha) | Pre-emergence efficacy against ECHCG ([6]; 320 g/ha) | Pre-emergence efficacy against LOLRI (Lolium rigidum (LOLRI) [7]; dosage 320 g/ha) | Pre-emergence efficacy against LOLRI (Lolium rigidum (LOLRI) [7]; dosage 1280 g/ha) | Pre-emergence efficacy against VERPE (Veronica persica (VERPE); 80 g/ha) | Pre-emergence efficacy against VERPE (Veronica persica (VERPE); 320 g/ha) |
| --- | --- | --- | --- | --- | --- | --- | --- | --- | --- | --- | --- | --- | --- | --- | --- | --- | --- | --- | --- | --- |
| O=S(=O)(CCCC(F)(F)F)Oc1c(F)cccc1Oc1ncc(Cl)cn1 [Example I-49] | 20% | – | – | – | 100% | 100% | 80% | 90% | 100% | 100% | 100% | 100% | 100% | 100% | 100% | 100% | 90% | 90% | – | – |

From patent US20240174618A1, “SUBSTITUTED (2-HETEROARYLOXYPHENYL)SULFONATES, SALTS THEREOF AND THEIR USE AS HERBICIDAL AGENTS” (Bayer Aktiengesellschaft, priority 2021, published 2024)
